Laboratory results published in patent US20090176817A1, “Method of Treatment of Diarrhea-Predominant Irritable Bowel Syndrome in a Subject” (priority 2005, published 2009).

Tests used:
[1] = clinical; conditions: human, in vivo, po
Method: Two randomized, double-blind, placebo controlled, rising dose, crossover studies evaluated the single-dose pharmacokinetics of oral cilansetron over a 4 mg to 64 mg dose range. In one study, 24 male subjects (aged 21-36 years) received, at intervals of […], single oral doses of 4, 8, and 16 mg cilansetron in ascending order and a randomized placebo. In the other study, 24 male subjects received, at intervals of ≧1 week, single oral doses of 16, 32, and 64 mg cilansetron in ascending order and a randomized placebo. All doses were administered under fasted conditions. […] Renal excretion of cilansetron was negligible across all doses, with undetectable or very low amounts (<1% of the dose) excreted unchanged in urine.
Data for the evaluation of dose proportionality of oral cilansetron is available from three studies which have evaluated the pharmacokinetics of single doses over a 2 mg to 64 mg dose range. Two randomized, double-blind, placebo controlled, rising dose, crossover studies, in 24 male subjects each, evaluated the single dose pharmacokinetics of oral cilansetron (capsules) over a 4-16 mg and 16-64 mg dose range, respectively. In each study, subjects received, at intervals of ≧1 week, single oral doses of cilansetron in ascending order and a randomized placebo. All doses were administered under fasted conditions. A third open-label, randomized, parallel-group study in 36 male and female subjects, evaluated the single dose pharmacokinetics of a cilansetron 2 mg tablet administered under fed conditions. FIG. 16 to FIG. 19 present box plots of cilansetron AUC(0-inf) and Cmax from these three studies (males only), and corresponding dose-normalized values (normalized to a 1 mg dose). […] Table 2.7.2.3.14 presents descriptive statistics of cilansetron dose-normalized AUC and Cmax in these studies, and the results of statistical comparisons between doses.

[2] = in vitro; format: in vitro ADME; conditions: human, plasma
Method: Protein binding was also evaluated in an in vitro study in human, mouse, rat, and dog plasma using equilibrium dialysis (12-14K molecular weight cut-off membrane). This study measured the binding of (^14C)-cilansetron in plasma at nominal concentrations (30, 90, and 300 ng/mL) which are much higher than those encountered in vivo in humans. This study also measured the binding of (^14C)-cilansetron to purified human serum albumin at cilansetron concentrations ranging from 30-3000 ng/mL and to purified human alpha-1 acid glycoprotein (AAG) at concentrations ranging from 30-10000 ng/mL.

[3] = system: healthy subjects; experiment: Study K.241.5007: rectal visceral perception; format: in vivo, human; conditions: mean; for Pressure first producing abdominal pain, Differences from Placebo / Pressure first producing feeling of abdominal sensation, Differences from Placebo / Pressure first producing feeling of need to defecate, Differences from Placebo / Volume first producing abdominal pain, Differences from Placebo / Volume first producing feeling of abdominal sensation, Differences from Placebo / Volume first producing feeling of need to defecate, Differences from Placebo: not significant; for Pressure first producing abdominal pain / Pressure first producing feeling of abdominal sensation / Pressure first producing feeling of need to defecate / Volume first producing abdominal pain / Volume first producing feeling of abdominal sensation / Volume first producing feeling of need to defecate: rectal distension, absolute value
Method: The effect of cilansetron on rectal visceral perception was evaluated in a randomized, doubleblind, placebo-controlled, 4-way crossover study in 12 male healthy subjects (ITT population), aged 18-26 years. Subjects received single IV doses of placebo or cilansetron 4 mg, 8 mg, or 16 mg as 30-minute infusions during each of the periods, with a 14-day washout between periods. Rectal distension tests were done during each treatment, immediately following the completion of each infusion. An electronic barostat was used to produce isobarometric distensions (successive 4 mmHg increases every 5 minutes, up to a sensation of abdominal pain or a maximum of 44 mmHg). The primary efficacy parameter was the distension pressure required to induce a sensation of abdominal pain. Secondary parameters were the distension pressure at the first feeling of abdominal/rectal sensation and the first feeling of need to defecate, and the response rate (defined as the number of subjects who experienced no abdominal pain at the maximum pressure of 44 mmHg). The pain threshold for each of the three cilansetron doses was compared to placebo using a one-sided Dunnett t-test.

SMILES: Cc1nccn1C[C@H]1CCc2c(c3cccc4c3n2CCC4)C1=O [Cilansetron, (R)-(−)-4,5,6,8,9,10-hexahydro-10-[(2-methyl-1H-imidazol-1-yl)methyl]-11H-pyrido-[3,2,1-jk]-carbazol-11-one]
- CL/F ([1]; 4 mg): 3864 (69) mL/min
- CL/F ([1]; 8 mg): 3851 (103) mL/min
- DN-AUC(0-inf) ratio 8 mg/4 mg ([1]; male): 109%
- DN-AUC(0-inf) ratio 16 mg/4 mg ([1]; male): 117%
- DN-AUC(0-inf) ratio 16 mg/8 mg ([1]; male): 108%
- DN-AUC(0-last) ratio 8 mg/4 mg ([1]; male): 120%
- DN-AUC(0-last) ratio 16 mg/4 mg ([1]; male): 132%
- DN-AUC(0-last) ratio 16 mg/8 mg ([1]; male): 110%
- DN-Cmax ratio 8 mg/4 mg ([1]; male): 115%
- DN-Cmax ratio 16 mg/4 mg ([1]; male): 122%
- DN-Cmax ratio 16 mg/8 mg ([1]; male): 107%
- Dose excreted unchanged in urine ([1]; male): < 1%
- Tmax ([1]; male): 1 to 1.25 h
- half-life ([1]; male): 1.2 to 1.6 h
- AUC(0-inf) ([1]; male, 4 mg): 26.7 ng·h/mL
- AUC(0-t) ([1]; male, 4 mg): 23.2 ng·h/mL
- Cmax ([1]; male, 4 mg): 9.88 ng/mL
- Tmax ([1]; male, 4 mg): 1.25 h
- Vd/F ([1]; male, 4 mg): 522 L
- half-life ([1]; male, 4 mg): 1.56 h
- AUC(0-inf) ([1]; male, 8 mg): 59.4 ng·h/mL
- AUC(0-t) ([1]; male, 8 mg): 55.5 ng·h/mL
- Cmax ([1]; male, 8 mg): 22.1 ng/mL
- Tmax ([1]; male, 8 mg): 1 h
- Vd/F ([1]; male, 8 mg): 472 L
- half-life ([1]; male, 8 mg): 1.47 h
- Tmax ([1]; male, 16 mg): 1 h
- fraction unbound [2]: 0.042
- Pressure first producing abdominal pain, Differences from Placebo ([3]; 4 mg single IV dose): 0.67 mmHg
- Pressure first producing feeling of abdominal sensation, Differences from Placebo ([3]; 4 mg single IV dose): −1.00 mmHg
- Pressure first producing feeling of need to defecate, Differences from Placebo ([3]; 4 mg single IV dose): −0.67 mmHg
- Volume first producing abdominal pain, Differences from Placebo ([3]; 4 mg single IV dose): 12.7 mL
- Volume first producing feeling of abdominal sensation, Differences from Placebo ([3]; 4 mg single IV dose): -20.0 mL
- Volume first producing feeling of need to defecate, Differences from Placebo ([3]; 4 mg single IV dose): -8.75 mL
- Pressure first producing abdominal pain ([3]; 4 mg single IV dose): 31.0 mmHg
- Pressure first producing feeling of abdominal sensation ([3]; 4 mg single IV dose): 12.7 mmHg
- Pressure first producing feeling of need to defecate ([3]; 4 mg single IV dose): 20.3 mmHg
- Volume first producing abdominal pain ([3]; 4 mg single IV dose): 310 mL
- Volume first producing feeling of abdominal sensation ([3]; 4 mg single IV dose): 132 mL
- Volume first producing feeling of need to defecate ([3]; 4 mg single IV dose): 233 mL
- Pressure first producing abdominal pain, Differences from Placebo ([3]; 8 mg single IV dose): 2.00 mmHg
- Pressure first producing feeling of abdominal sensation, Differences from Placebo ([3]; 8 mg single IV dose): −1.67 mmHg
- Pressure first producing feeling of need to defecate, Differences from Placebo ([3]; 8 mg single IV dose): −0.67 mmHg
- Volume first producing abdominal pain, Differences from Placebo ([3]; 8 mg single IV dose): -0.83 mL
- Volume first producing feeling of abdominal sensation, Differences from Placebo ([3]; 8 mg single IV dose): -19.2 mL
- Volume first producing feeling of need to defecate, Differences from Placebo ([3]; 8 mg single IV dose): -10.0 mL
- Pressure first producing abdominal pain ([3]; 8 mg single IV dose): 32.3 mmHg
- Pressure first producing feeling of abdominal sensation ([3]; 8 mg single IV dose): 12.0 mmHg
- Pressure first producing feeling of need to defecate ([3]; 8 mg single IV dose): 20.3 mmHg
- Volume first producing abdominal pain ([3]; 8 mg single IV dose): 297 mL
- Volume first producing feeling of abdominal sensation ([3]; 8 mg single IV dose): 133 mL
- Volume first producing feeling of need to defecate ([3]; 8 mg single IV dose): 232 mL
- Pressure first producing abdominal pain, Differences from Placebo ([3]; 16 mg single IV dose): 1.33 mmHg
- Pressure first producing feeling of abdominal sensation, Differences from Placebo ([3]; 16 mg single IV dose): −1.00 mmHg
- Pressure first producing feeling of need to defecate, Differences from Placebo ([3]; 16 mg single IV dose): −1.00 mmHg
- Volume first producing abdominal pain, Differences from Placebo ([3]; 16 mg single IV dose): 15.8 mL
- Volume first producing feeling of abdominal sensation, Differences from Placebo ([3]; 16 mg single IV dose): -14.2 mL
- Volume first producing feeling of need to defecate, Differences from Placebo ([3]; 16 mg single IV dose): -3.75 mL
- Pressure first producing abdominal pain ([3]; 16 mg single IV dose): 31.7 mmHg
- Pressure first producing feeling of abdominal sensation ([3]; 16 mg single IV dose): 12.7 mmHg
- Pressure first producing feeling of need to defecate ([3]; 16 mg single IV dose): 20.0 mmHg
- Volume first producing abdominal pain ([3]; 16 mg single IV dose): 313 mL
- Volume first producing feeling of abdominal sensation ([3]; 16 mg single IV dose): 138 mL
- Volume first producing feeling of need to defecate ([3]; 16 mg single IV dose): 238 mL
- In vivo chiral inversion to KC9945: no in vivo chiral inversion
